Measured values from paper PMC6169318 (Organic & biomolecular chemistry, 2017).

Key:
Sco GlgEI-V279S [1] = target: T1, Sco GlgEI-V279S (Streptomyces coelicolor, UniProt Q9L1K2, V279S); conditions: ratio of Ki values
Sco GlgEI-V279S [2] = target: T1, Sco GlgEI-V279S; conditions: earlier work; cited from earlier work

T1 sequence (Q9L1K2 whole entry V279S): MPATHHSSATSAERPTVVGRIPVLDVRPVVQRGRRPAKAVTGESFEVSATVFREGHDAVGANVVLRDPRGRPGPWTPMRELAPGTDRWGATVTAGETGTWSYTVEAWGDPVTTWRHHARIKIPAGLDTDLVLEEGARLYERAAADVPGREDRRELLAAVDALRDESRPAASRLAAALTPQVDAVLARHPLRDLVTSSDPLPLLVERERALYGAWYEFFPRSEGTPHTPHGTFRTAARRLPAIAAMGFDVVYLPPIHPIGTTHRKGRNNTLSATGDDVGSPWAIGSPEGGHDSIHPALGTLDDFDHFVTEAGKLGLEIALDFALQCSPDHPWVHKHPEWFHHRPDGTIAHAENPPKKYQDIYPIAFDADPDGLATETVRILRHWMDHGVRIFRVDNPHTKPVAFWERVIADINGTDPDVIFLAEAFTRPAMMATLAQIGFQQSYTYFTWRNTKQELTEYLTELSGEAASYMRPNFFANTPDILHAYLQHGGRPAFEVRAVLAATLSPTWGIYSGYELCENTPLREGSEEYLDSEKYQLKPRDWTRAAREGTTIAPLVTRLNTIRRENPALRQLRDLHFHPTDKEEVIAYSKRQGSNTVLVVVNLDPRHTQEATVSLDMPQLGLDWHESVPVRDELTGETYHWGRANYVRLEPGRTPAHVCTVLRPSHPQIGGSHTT

SMILES	fold more potent than previously reported inhibitor 4 (Sco GlgEI-V279S [1]; 5 versus 4) [fold]	fold more potent than two carbon phosphonate 6 (Sco GlgEI-V279S [1]; 5 versus 6) [fold]	inhibitory activity against Sco GlgEI-V279S (in words) (Sco GlgEI-V279S [2])
O=P(O)(O)CN1C(CO)C(O)C(O[C@H]2O[C@H](CO)[C@@H](O)[C@H](O)[C@H]2O)C1CO (stereo partly drawn) [Compound 5, ((3-Hydroxy-2,5-bis(hydroxymethyl)-(3-O-α-D-glucopyranosyl)pyrrolidin-1-yl)methyl)phosphonic acid]	2	2	
OC[C@H]1N[C@H](CO)[C@@H](O[C@H]2O[C@H](CO)[C@@H](O)[C@H](O)[C@H]2O)[C@@H]1O [Compound 4, 2,5-dideoxy-3-O-α-D-glucopyranosyl-2,5-imino-D-mannitol]			moderate inhibitory activity
